The source of these data is paper PMC10012260 (ACS Infectious Diseases, 2023).

The structures appear in SMILES notation. Where “and” joins values, the source holds several entries; their conditions need not be identical. Equal entries are not always repeated. Where two headings read alike, the source gives them in different places.

For series [1], the system named is NDV La Sota. Description: microbe, parasite or virus in culture. The format is cell-based, Newcastle disease virus. The note with it: avian paramyxovirus 1, Vero, read-out: Inhibition of viral binding (IC50, μM).
The target in series [2] is NDV-HN of three NDV strains (two NDV La Sota and the velogenic strain APMV-1/chicken/Egypt/13VIR-5009-2/2013) (Newcastle disease virus, UniProt P35743). Description: biochemical.
Sequence of NDV-HN of three NDV strains (two NDV La Sota and the velogenic strain APMV-1/chicken/Egypt/13VIR-5009-2/2013) (P35743 whole entry, looked up): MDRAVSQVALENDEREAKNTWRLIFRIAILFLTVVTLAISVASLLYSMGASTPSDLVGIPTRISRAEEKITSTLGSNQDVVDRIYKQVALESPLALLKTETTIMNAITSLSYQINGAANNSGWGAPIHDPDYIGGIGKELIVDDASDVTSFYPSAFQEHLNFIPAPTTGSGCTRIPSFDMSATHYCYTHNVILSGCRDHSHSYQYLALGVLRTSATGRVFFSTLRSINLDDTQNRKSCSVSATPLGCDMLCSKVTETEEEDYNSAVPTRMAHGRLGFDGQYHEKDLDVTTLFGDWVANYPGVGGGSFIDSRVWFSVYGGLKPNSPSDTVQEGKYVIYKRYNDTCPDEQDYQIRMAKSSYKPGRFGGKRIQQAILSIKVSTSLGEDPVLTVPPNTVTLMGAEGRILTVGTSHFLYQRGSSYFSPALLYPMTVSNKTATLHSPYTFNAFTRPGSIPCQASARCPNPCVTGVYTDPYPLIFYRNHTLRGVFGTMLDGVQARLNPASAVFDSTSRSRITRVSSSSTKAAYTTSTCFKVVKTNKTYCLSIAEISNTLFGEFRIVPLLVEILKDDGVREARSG
For series [3], the system named is NDV La Sota. Description: microbe, parasite or virus in culture. The format is cell-based, Newcastle disease virus. As to conditions: avian paramyxovirus 1, Vero, 24 h, read-out: viral yield reduction assay 24 h (IC50, μM).
Series [4] has as its system NDV La Sota. Description: microbe, parasite or virus in culture. The format is cell-based, Newcastle disease virus. The note with it: avian paramyxovirus 1, Vero, 48 h, read-out: Inhibition of viral release (IC50, μM).
Series [5] relates to NDV La Sota. As to the kind of experiment: microbe, parasite or virus in culture. The format is cell-based, Newcastle disease virus. The note with it: for IC50: avian paramyxovirus 1, Vero, 48 h, read-out: plaque reduction assay (IC50, μM).
Series [6] is described as follows: in vitro. The note with it: African green monkey.
For series [7], the system named is hPIV3-HN. The note with it: read-out: IC50 hPIV3-HN; cited from earlier work.
Series [8] concerns the target La Sota Clone 30 NDV-HN (Newcastle disease virus, UniProt P35743). The format is biochemical.

Sequence of La Sota Clone 30 NDV-HN (P35743 whole entry, looked up): as above

Usually IC50 stands for the point on the concentration scale where inhibition reaches its midpoint. Take `CC(=O)N[C@H]1[C@H]([C@H](O)[C@H](O)CO)OC(C(=O)O)=C[C@@H]1O` [Compound 1, N-acetyl-2,3-dehydro-2-deoxyneuraminic acid, reference compound]: the concentration for half-maximal inhibition (IC50) in series [1] is over 100 µM; in series [2], 6.2 to 14 µM; in series [3], 1.6 ± 0.6 µM; in series [4], 15 ± 8 µM; in series [5], 26 ± 13 µM. The “selectivity index (CC50/IC50)” value in series [5] is on record as over 96. In series [6], this molecule had a CC50 of over 2500 µM.

As for `CC(=O)N[C@H]1[C@H]([C@H](O)[C@H](O)CO)OC(C(=O)O)=C[C@@H]1N=C(N)N` [Compound 2, Zanamivir, reference compound], the concentration for half-maximal inhibition (IC50) in series [1] was over 100 µM; in series [2], 23 to 70 µM; in series [4], 29 ± 10 µM; in series [5], 30 ± 7 µM. In addition, the “selectivity index (CC50/IC50)” value in series [5] is recorded as over 83. Besides, the CC50 in series [6] is over 2500 µM.

Regarding `CC(C)C(=O)N[C@H]1[C@H]([C@H](O)[C@H](O)CO)OC(C(=O)O)=C[C@@H]1N=[N+]=[N-]` [Compound 4], the concentration for half-maximal inhibition (IC50) in series [7] was 20 µM and 21.5 µM.

Turning to `O=C(O)C1=C[C@H](O)[C@@H](NC(=O)C(F)(F)F)[C@H]([C@H](O)[C@H](O)CO)O1` [Compound 5, N-trifluoroacetyl-2,3-dehydro-2-deoxyneuraminic acid, reference compound], the IC50 in series [1] was over 100 µM; in series [2], 6.2 to 14 µM; in series [3] it was 0.37 ± 0.08 µM; in series [4], 7.7 ± 2.9 µM; in series [5], 3.5 ± 0.9 µM. Moreover, in series [5], the “selectivity index (CC50/IC50)” value is over 714. In series [6], this molecule came in with a CC50 of over 2500 µM.

Consider `[N-]=[N+]=N[C@H]1C=C(C(=O)O)O[C@@H]([C@H](O)[C@H](O)CO)[C@@H]1NC(=O)C(F)(F)F` [Compound 9], for which the IC50 in series [1] is 23 µM; in series [2], about 0.03 µM; in series [3], 0.04 ± 0.01 µM; in series [4] it was 0.47 µM; in series [5] it was 0.17 ± 0.06 µM. In series [6], this molecule yielded a CC50 of over 2500 µM.

`[N-]=[N+]=N[C@H]1C=C(C(=O)O)O[C@@H]([C@H](O)[C@H](O)CO)[C@@H]1NC(=O)C(F)(F)C(F)(F)C(F)(F)F` [Compound 10]: the IC50 in series [1] is 4 µM; in series [2], about 0.03 µM; in series [3], 0.04 ± 0.01 µM; in series [4] it was 0.09 µM; in series [5] it was 0.06 ± 0.02 µM. Moreover, the “selectivity index (CC50/IC50)” value in series [5] is given as >41,667. In addition, the CC50 in series [6] is over 2500 µM.

For `O=C(O)C1=C[C@H](NS(=O)(=O)c2ccccc2)[C@@H](NC(=O)C(F)(F)F)[C@H]([C@H](O)[C@H](O)CO)O1` [Compound 19, 2,6-Anhydro-4-(phenylsulfonamido)-3,4,5-trideoxy-5-(2,2,2-trifluoroacetamido)-D-glycero-D-galacto-non-2-enoic Acid], the “increase in potency versus methylsulfonamido derivative 14” value in series [8] was 10 fold.

For `Cc1ccc(C(=O)N[C@H]2C=C(C(=O)O)O[C@@H]([C@H](O)[C@H](O)CO)[C@@H]2NC(=O)C(F)(F)F)cc1` [Compound 23, 2,6-Anhydro-4-(4-methylbenzamido)-3,4,5-trideoxy-5-(2,2,2-trifluoroacetamido)-D-glycero-D-galacto-non-2-enoic Acid], the IC50 in series [1] is 24 µM; in series [2], at most 0.2 µM; in series [3], 0.05 ± 0.02 µM; in series [4], 0.13 µM; in series [5] it was 0.79 ± 0.57 µM. Further, the “increase in inhibitory activity versus p-toluenesulfonamido 12” value in series [8] is recorded as 3 fold. Moreover, the “times more active than FANA 5” value in series [8] is 40 times. Further, the CC50 in series [6] is over 2500 µM.

With `O=C(O)C1=C[C@H](NC(=O)C(F)(F)F)[C@@H](NC(=O)C(F)(F)F)[C@H]([C@H](O)[C@H](O)CO)O1` [Compound 24, 2,6-Anhydro-3,4,5-trideoxy-4,5-di-(2,2,2-trifluoroacetamido)-D-glycero-D-galacto-non-2-enoic Acid], the IC50 is 15 µM in series [1]; at most 0.2 µM in series [2]; 0.03 ± 0.01 µM in series [3]; 0.17 µM in series [4]; 0.08 ± 0.01 µM in series [5]. In series [6], this molecule showed a CC50 of over 2500 µM.
